Where only a bound is given, the exact number is not on record here.

In assay [1] the test system is E. coli 14. It counts as cell-based. The conditions noted are these: E. coli 14; 24 hours, 37°C.
Assay [2] deals with E. coli A 261. Description: MIC, test tube series dilution test, E. coli A 261. The conditions noted are these: 24 hours, 37°C. It counts as cell-based.
Assay [3] relates to E. coli C 165. Description: MIC, test tube series dilution test, E. coli C 165. It counts as cell-based. The note with it: 24 hours, 37°C.
In assay [4] the test system is E. coli 183/58. Briefly: MIC, test tube series dilution test, E. coli 183/58. It counts as cell-based. The note with it: 24 hours, 37°C.
Assay [5] has as its system Proteus morg. 932. Briefly: MIC, test tube series dilution test, Proteus morg. 932. It counts as cell-based. The conditions noted are these: 24 hours, 37°C.
In assay [6] the test system is Proteus vulg. 1017. It counts as cell-based, Proteus vulgaris. The note with it: Proteus 1017; 24 hours, 37°C.
Assay [7] concerns Psdm. aerug. F 41. Briefly: MIC, test tube series dilution test, Psdm. aerug. F 41. It counts as cell-based, Pseudomonas aeruginosa. The note with it: Psdm. aerug. F 41; 24 hours, 37°C.
The subject of assay [8] is Psdm. aerug. Walter. Description: MIC, test tube series dilution test, Psdm. aerug. Walter. It counts as cell-based, Pseudomonas aeruginosa. The note with it: Psdm. aerug. Walter; 24 hours, 37°C.
Assay [9] relates to Klebsiella K 10. Description: MIC, test tube series dilution test, Klebsiella K 10. It counts as cell-based. The note with it: 24 hours, 37°C.
In assay [10] the test system is Klebsiella 63. Briefly: MIC, test tube series dilution test, Klebsiella 63. It counts as cell-based. The note with it: Klebsiella 63; 24 hours, 37°C.
Assay [11] has as its system Staph. aureus 1756. Briefly: MIC, test tube series dilution test, Staph. aureus 1756. It counts as cell-based, Staphylococcus aureus. The conditions noted are these: Staph. aureus 1756; 24 hours, 37°C.
The test system of assay [12] is Staph. aureus 133. It counts as cell-based, Staphylococcus aureus. The conditions noted are these: Staph. aureus 133; 24 hours, 37°C.
Assay [13] has as its system Enterococcus 9790. Description: MIC, test tube series dilution test, Enterococcus 9790. It counts as cell-based. The note with it: 24 hours, 37°C.
The subject of assay [14] is Psdm. aerug. F 41. Description: animal experiment, Psdm. aerug. F 41 infection. The conditions noted are these: s.c. 4 × 3000 Units per animal, experiment with Ex.22.

For `CC1(C)S[C@@H]2[C@H](NC(=O)[C@H](NC(=O)c3ccc(NC(=O)c4ccc(F)cc4)cc3)c3ccccc3)C(=O)N2[C@H]1C(=O)O` [Example 17], the MIC is 4 U/ml in [1]; more than 256 U/ml in assay [2]; ~ 8 U/ml in [3]; 8 U/ml in assay [4]; 128 U/ml in assay [5]; ~ 32 U/ml in [6]. Also, the MIC in [7] is 32 U/ml; in assay [8], 32 U/ml; in [9] it was 64 U/ml; in assay [10] it was 32 U/ml; in [11], 32 U/ml; in assay [12], less than 1 U/ml. The same compound had an MIC in [13] of 16 U/ml.

Turning to `COc1cc(OC)cc(C(=O)Nc2ccc(C(=O)N[C@@H](C(=O)N[C@@H]3C(=O)N4[C@@H]3SC(C)(C)[C@@H]4C(=O)O)c3ccccc3)cc2)c1` [Example 18], the MIC is on record as 4 U/ml in assay [1]; more than 256 U/ml in assay [2]; 8 U/ml in assay [3]; 8 U/ml in assay [4]; 128 U/ml in assay [5]; 64 U/ml in assay [6]. Moreover, the MIC in [7] is given as 16 U/ml; in [8], 16 U/ml; in assay [9], 64 U/ml; in assay [10], 64 U/ml; in [11] it was 16 U/ml; in [12], less than 1 U/ml. In assay [13], this compound had an MIC of 8 U/ml.

As to `COc1cc(C(=O)Nc2ccc(C(=O)N[C@@H](C(=O)N[C@@H]3C(=O)N4[C@@H]3SC(C)(C)[C@@H]4C(=O)O)c3ccccc3)cc2)cc(OC)c1OC` [Example 22, Sodium D(-)-α-(4-[3,4,5-trimethoxybenzoylaminobenzoylamino])-benzylpenicillin], the values for the MIC in assay [2], in [6] and in assay [12] were more than 256 U/ml, ~ 16 U/ml and less than 1 U/ml, respectively. Moreover, the Surviving animals in assay [14] (1st day after infection), in [14] (2nd day after infection) and in [14] (3rd day after infection) was 80% throughout.

As to `CC1(C)S[C@@H]2[C@H](NC(=O)[C@H](NC(=O)c3ccc(NC(=O)c4ccccc4)cc3)c3ccccc3)C(=O)N2[C@H]1C(=O)O` [Example 25], the MIC in assay [1] is 8 U/ml; in [2], more than 256 U/ml; in assay [3], 16 U/ml; in assay [4], 8 U/ml; in assay [5], 16 U/ml; in [6], 128 U/ml. Besides, the MIC in assay [7] is reported as 16 U/ml; in assay [8], 32 U/ml; in assay [9], 64 U/ml; in assay [10] it was 32 U/ml; in assay [11], 64 U/ml; in assay [12] it was less than 1 U/ml. The same compound came in with an MIC in assay [13] of 8 U/ml.

With `CC1(C)S[C@@H]2[C@H](NC(=O)[C@H](NC(=O)c3ccc(NC(=O)c4ccc(N=[N+]=[N-])cc4)cc3)c3ccccc3)C(=O)N2[C@H]1C(=O)O` [Example 26], the MIC is reported as less than 1 U/ml in [1]; 256 U/ml in assay [2]; 4 U/ml in assay [3]; less than 1 U/ml in assay [4]; 8 U/ml in assay [5]; 16 U/ml in assay [6]. The MIC in [7] was 16 U/ml; in [8] it was 16 U/ml; in [9] it was 16 U/ml; in assay [10] it was 4 U/ml; in [11], 64 U/ml; in assay [12], less than 1 U/ml. The compound also had an MIC in assay [13] of 16 U/ml.

On to `CC1(C)S[C@@H]2[C@H](NC(=O)[C@H](NC(=O)c3ccc(NC(=O)c4ccc([N+](=O)[O-])cc4)cc3)c3ccccc3)C(=O)N2[C@H]1C(=O)O` [Example 28, sodium D(-)-α-[4-(4-nitrobenzoylamino)-benzoylamino]-benzylpenicillin], for which the MIC in assay [1] is given as less than 1 U/ml; in assay [2] it was more than 256 U/ml; in assay [3], 4 U/ml; in assay [4] it was 4 U/ml; in [5], 128 U/ml; in [6], 16 U/ml. The MIC in assay [7] is 16 U/ml; in assay [8], 16 U/ml; in assay [9], 16 U/ml; in assay [10] it was 16 U/ml; in assay [11] it was ~ 32 U/ml; in [12], less than 1 U/ml. In [13], this compound had an MIC of 4 U/ml.

In the case of `CC1(C)S[C@@H]2[C@H](NC(=O)[C@H](NC(=O)c3ccc(NC(N)=O)cc3)c3ccccc3)C(=O)N2[C@H]1C(=O)O` [Example 30, sodium D(-)-α-(4-carbamoylaminobenzoylamino)-benzylpenicillin], the MIC in [1] is listed as ~ 32 U/ml; in [2], more than 256 U/ml; in assay [3] it was 32 U/ml; in [4], 256 U/ml; in [5], more than 256 U/ml; in [6], more than 256 U/ml. The MIC was 128 U/ml in [7]; more than 256 U/ml in assay [8]; more than 256 U/ml in assay [9]; 256 U/ml in assay [10]; 64 U/ml in assay [11]; less than 1 U/ml in assay [12]. This compound gave an MIC in assay [13] of 8 U/ml.

As to `CC1(C)S[C@@H]2[C@H](NC(=O)[C@H](NC(=O)c3ccc(NC(=O)C=Cc4ccccc4)cc3)c3ccccc3)C(=O)N2[C@H]1C(=O)O` [Example 35], the MIC in assay [1] is reported as less than 1 U/ml; in assay [2], more than 256 U/ml; in [3] it was 4 U/ml; in [4] it was less than 1 U/ml; in [5], 128 U/ml; in assay [6], ~ 1 U/ml. Moreover, the MIC in [7] is on record as 4 U/ml; in [8], 4 U/ml; in assay [9] it was 16 U/ml; in [10], 8 U/ml; in assay [11], 8 U/ml; in assay [12], less than 1 U/ml. Further, the MIC in assay [13] is listed as ~ 4 U/ml.

For `CC(N=[N+]=[N-])C(=O)Nc1ccc(C(=O)N[C@@H](C(=O)N[C@@H]2C(=O)N3[C@@H]2SC(C)(C)[C@@H]3C(=O)O)c2ccccc2)cc1` (some centres unmarked) [Example 37], the MIC in assay [1] is 4 U/ml; in [2], more than 256 U/ml; in [3] it was 8 U/ml; in assay [4], 16 U/ml; in assay [5], ~ 128 U/ml; in [6], 128 U/ml. Moreover, the MIC in [7] is on record as ~ 32 U/ml; in assay [8], 32 U/ml; in assay [9], 64 U/ml; in assay [10] it was 32 U/ml; in [11], 64 U/ml; in [12], less than 1 U/ml. For the same compound, in assay [13], the MIC was 16 U/ml.

Consider `CC1(C)S[C@@H]2[C@H](NC(=O)[C@H](NC(=O)c3ccc(NC(=O)CCN=[N+]=[N-])cc3)c3ccccc3)C(=O)N2[C@H]1C(=O)O` [Example 38], for which the MIC in [1] was 4 U/ml; in assay [2], more than 256 U/ml; in assay [3], 16 U/ml; in assay [4] it was 16 U/ml; in [5] it was ~ 256 U/ml; in assay [6], 32 U/ml. For the same compound, the MIC in [7] is reported as 32 U/ml; in [8], 32 U/ml; in assay [9] it was 128 U/ml; in [10], 64 U/ml; in assay [11] it was 32 U/ml; in [12] it was less than 1 U/ml. The MIC in assay [13] is given as ~ 16 U/ml.

As for `CC1(C)S[C@@H]2[C@H](NC(=O)[C@H](NC(=O)c3ccc(NC(=O)Nc4ccccc4)cc3)c3ccccc3)C(=O)N2[C@H]1C(=O)O` [Example 45], the MIC in [1] is less than 1 U/ml; in [2] it was more than 256 U/ml; in [3], 8 U/ml; in [4] it was 4 U/ml; in assay [5], 128 U/ml; in [6] it was 16 U/ml. The MIC in assay [7] was 8 U/ml; in [8] it was 16 U/ml; in assay [9], 32 U/ml; in assay [10], 16 U/ml; in assay [11], 16 U/ml; in [12] it was less than 1 U/ml. The same compound returned an MIC in [13] of less than 1 U/ml.

In the case of `CC1(C)S[C@@H]2[C@H](NC(=O)[C@H](NC(=O)CNC(=O)c3ccc(NC(=O)C4CCCC4)cc3)c3ccccc3)C(=O)N2[C@H]1C(=O)O` [Example 66], the MIC is listed as 8 U/ml in assay [1]; more than 256 U/ml in assay [2]; 32 U/ml in [3]; 64 U/ml in [4]; more than 256 U/ml in [5]; 32 U/ml in [6]. Besides, the MIC in assay [7] is recorded as 64 U/ml; in assay [8] it was 128 U/ml; in assay [9], 64 U/ml; in assay [10], 32 U/ml; in assay [11], 32 U/ml; in assay [12], less than 1 U/ml. In assay [13], this compound came in with an MIC of 32 U/ml.

(Values after patent publication US4001218A, “Penicillins” (Bayer Aktiengesellschaft, priority 1972, dated 1977).)
